Patent publication EP0089926A2, “Pharmaceutical preparations of tetracycles containing nitrogen, and compounds of this type” (CIBA-GEIGY AG, priority 1982, dated 1983)

Tested on: Mäuse
Assay: Step-down platform passive avoidance test, direct measurement of improvement of memory performance
Format: in vivo
Conditions: male mice, 1 mg/kg i.p. within 10 seconds after foot shock, time on platform 24 hours later versus solvent controls
Source text: Zur unmittelbaren […]: • Die Testvorrichtung besteht aus […] normal beleuchteten Box (50 […]äbe (6 mm Durchmesser) in einem Abstand von jeweils 13 mm angeordnet sind. In […] Gitterrostes ist eine hölzerne Plattform (10 mm Höhe, 67 mm Durchmesser) angebracht, welche von […] hoch, 68 mm […]. Zur Durchführung des Trainings werden Gruppen von jeweils 30 männlichen Mäusen (20 - 25 g) verwendet, indem jeweils ein Tier auf die von […] die […] und die Zeitdauer gemessen wird, welche das Tier zum Hinabsteigen und Berühren des Gitterrostes mit allen 4 Pfoten benö[…] von 10 Sekunden nach Verabreichung des Fussschocks werden die Testsubstanzen in Dosen von 0,1 mg/kg, 1 mg/kg und 10 mg/kg (für jede Dosis werden 30 Mäuse verwendet) je nach Löslichkeit als Lösung in physiologischer NaCl-Lösung oder einer 0,5%-igen Lösung von Methylcellulose in Wasser intraperitoneal verabreicht.

Row | SMILES | Verbesserung der Gedächtnisleistung
1 | CCC1(CC(O)C(=O)OC)CCN2CCc3c([nH]c4ccccc34)C21 (racemic) [erythro-cis-a-Hydroxy-1-äthyl-2,3,5,6,11,11b-hexahydro-1H-indolizino[8,7-b]indol-1-propionsäuremethylester] | eine Verbesserung der Gedächtnisleistung
2 | CCC1(CCC(=O)OC)CCN2CCc3c([nH]c4ccccc34)C21 (racemic) [cis-1-Aethyl-2,3,5,6,11,11b-hexahydro-1H-indolizino[8,7-b]indol-1-propionsäuremethylester] | eine Verbesserung der Gedächtnisleistung
